According to patent US12077768B2, “Plants having increased tolerance to herbicides” (BASF AGRO B.V., priority 2013, dated 2024):

Test system: mutated PPO sequences (e.g. SEQ ID NOs: 1, 30, 31, 11, 37, and 117) as wildtype or with respective mutations, expressed in leaf discs
Assay: Herbicide tolerance of transiently transformed tobacco leaf discs expressing wildtype or mutated PPO: tolerance factors from IC50 of PSII yield inhibition versus empty vector
Type: cell-based, Nicotiana benthamiana

SMILES: C#CCN1C(=O)C(F)(F)Oc2cc(F)c(-n3c(=O)n(C)c(=S)n(C)c3=O)cc21 [1,5-dimethyl-6-thioxo-3-(2,2,7-trifluoro-3-oxo-4-(prop-2-ynyl)-3,4-dihydro-2H-benzo[b][1,4]oxazin-6-yl)-1,3,5-triazinane-2,4-dione]
- Tolerance factor (IC50 of PSII yield inhibition, transformed versus empty vector-transformed leaf discs): 28.7
